Experimental data from patent US7732468B2, “3-aryl-6-aryl-[ 1,2,4]triazolo[3,4-b][1,3,4]thiadiazoles and related compounds as activators of caspases and inducers of apoptosis and the use thereof” (Cytovia, Inc., priority 2006, dated 2010).

Legend:
Type in all cases: cell-based
[1] = system: human cancer cell line H1299; test: Caspase cascade activation in H1299 cells; conditions: NCI-H1299, 48 h incubation, read-out: caspase potency EC50 H1299
Method: (§1) Human breast cancer cell lines T-47D, human hepatocellular carcinoma cell line SNU398, human colon carcinoma cell line HCT116, human cancer cell line H11299, human Burkitt's lymphoma cell line Namalwa, human lymphoma cell line Raji, and human B cell lymphoblastoid cell line Ramos were grown according to media component mixtures designated by American Type Culture Collection+10% FCS (Invitrogen Corporation), in a 5% CO2-95% humidity incubator at 37° C. T-47D and H1299 cells were maintained at a cell density between 50 and 80% confluency at a cell density of 0.1 to 0.6×10^6 cells/mL. Cells were harvested at 600×g and resuspended at 0.65×10^6 cells/mL into appropriate media+10% FCS. An aliquot of 22.5 μL of cells was added to a well of a 384-well microtiter plate containing 2.5 μL of a 10% DMSO in RPMI-1640 media solution containing 0.16 to 100 μM of 6-(3,4-dimethoxyphenyl)-3-(2-methoxyphenyl)-[1,2,4]triazolo[3,4-b][1,3,4]thiadiazole or other test compound (0.016 to 10 μM final). An aliquot of 22.5 μL of cells was added to a well of a 384-well microtiter plate containing 2.5 μL of a 10% DMSO in RPMI-1640 media solution without test compound as the control sample. The samples were mixed by agitation and then incubated at 37° C. for 48 h in a 5% CO2-95% humidity incubator. After incubation, the samples were removed from the incubator and 25 μL of a solution containing 14 μM of N-(Ac-DEVD)-N′-ethoxycarbonyl-R110 (SEQ ID No.:1) fluorogenic substrate (Cytovia, Inc.; WO99/18856), 20% sucrose (Sigma), 20 mM DTT (Sigma), 200 mM NaCl (Sigma), 40 mM Na PIPES buffer pH 7.2 (Sigma), and 500 μg/mL lysolecithin (Calbiochem) was added. The samples were mixed by agitation and incubated at room temperature. Using a fluorescent plate reader (Model SPECTRAfluor Plus, Tecan), an initial reading (T=0) was made approximately 1-2 min after addition of the substrate solution, employing excitation at 485 nm and emission at 530 nm, to determine the background fluorescence of the control sample. After the 3 h incubation, the samples were read for fluorescence as above (T=3 h).
(§2) The Relative Fluorescence Unit values (RFU) were used to calculate the sample readings as follows: RFU(T=3h)−Control RFU(T=0)=Net RFU(T=3h)
(§3) The activity of caspase cascade activation was determined by the ratio of the net RFU value for 6-(3,4-dimethoxyphenyl)-3-(2-methoxyphenyl)-[1,2,4]triazolo[3,4-b][1,3,4]thiadiazole (Example I) or other test compound to that of control samples. The EC50 (nM) was determined by a sigmoidal dose-response calculation (Prism 3.0, GraphPad Software Inc.).

[2] = system: Human breast cancer cell lines T-47D; test: Caspase cascade activation (Ac-DEVD-R110 fluorogenic substrate) in T-47D cells; conditions: T47D cells, 48 h incubation, read-out: caspase potency EC50 T47D
Method: as §1, §2, §3

[3] = system: human B cell lymphoblastoid cell line Ramos; test: Caspase cascade activation in Ramos cells; conditions: 48 h incubation, read-out: caspase potency EC50 RAMOS
Method: as §1, §2, §3

[4] = system: human Burkitt's lymphoma cell line Namalwa; test: Caspase cascade activation in Namalwa cells; conditions: Burkitts lymphoma cell, 48 h incubation, read-out: caspase potency EC50 Namalwa
Method: as §1, §2, §3

[5] = system: human lymphoma cell line Raji; test: Caspase cascade activation in Raji cells; conditions: RAJ1 cells, 48 h incubation, read-out: caspase potency EC50 RAJ1
Method: as §1, §2, §3

[6] = system: human hepatocellular carcinoma cell line SNU398; test: Caspase cascade activation in SNU398 cells; conditions: SNU-398, 48 h incubation, read-out: caspase potency EC50 SNU398
Method: as §1, §2, §3

[7] = system: human colon carcinoma cell line HCT116; test: Caspase cascade activation in HCT116 cells; conditions: HCT-116, 48 h incubation, read-out: caspase potency EC50 HCT116
Method: as §1, §2, §3

[8] = system: Human breast cancer cell lines MDAMB435; test: Inhibition of cell proliferation (GI50) in MDAMB435 cells; conditions: MDA MB 435 cells, 48 h incubation
Method: (§4) Human breast cancer cell lines T-47D, MX1 and MDAMB435, human colon carcinoma cell line HCT116, human leukemia cell line K562, human lymphoma cell line Raji, human B cell lymphoblastoid cell line Ramos, and human Burkitt's lymphoma cell line Namalwa were grown and harvested as in Example 14. An aliquot of […] of cells (4.4×10^4 cells/mL) was added to a well of a 96-well microtiter plate containing 5 μL of a 10% DMSO in RPMI-1640 media solution containing 10 nM to 100 μM of 6-(3,4-dimethoxyphenyl)-3-(2-methoxyphenyl)-[1,2,4]triazolo[3,4-b][1,3,4]thiadiazole (1 nM to 10 μM final). An aliquot of 45 μL of cells was added to a well of a 96-well microtiter plate containing 5 μL of a 10% DMSO in RPMI-1640 media solution without compound as the control sample for maximal cell proliferation (LMax). The samples were mixed by agitation and then incubated at 37° C. for 48 h in a 5% CO2-95% humidity incubator. After incubation, the samples were removed from the incubator and 25 μL of CellTiter-Glo™ reagent (Promega) was added. The samples were mixed by agitation and incubated at room temperature for 10-15 min. Plates were then read using a luminescent plate reader (Model SPECTRAfluor Plus, Tecan) to give Ltest values.
(§5) The samples were mixed by agitation and then incubated at 37° C. for 0.5 h in a 5% CO2-95% humidity incubator. After incubation, the samples were removed from the incubator and 25 μL of CellTiter-Glo™ reagent (Promega) was added. The samples were mixed by agitation and incubated at […] 10-15 min at room temperature in a 5% CO2-95% humidity incubator. Fluorescence was read as above, (LStart) defining luminescence for initial cell number used as baseline in GI50 determinations.
(§6) GI50 (dose for 50% inhibition of cell proliferation) is the concentration where [(LTest−LStart)/(LMax−LStart)]=0.5.

[9] = system: Human breast cancer cell lines T-47D; test: Inhibition of cell proliferation (GI50, CellTiter-Glo) in T-47D cells; conditions: T47D cells, 48 h incubation
Method: as §4, §5, §6

[10] = system: Human breast cancer cell lines MX1; test: Inhibition of cell proliferation (GI50) in MX1 cells; conditions: 48 h incubation
Method: as §4, §5, §6

[11] = system: human colon carcinoma cell line HCT116; test: Inhibition of cell proliferation (GI50) in HCT116 cells; conditions: HCT 116 cells, 48 h incubation
Method: as §4, §5, §6

[12] = system: human Burkitt's lymphoma cell line Namalwa; test: Inhibition of cell proliferation (GI50) in Namalwa cells; conditions: Burkitts lymphoma cell, 48 h incubation
Method: as §4, §5, §6

[13] = system: human B cell lymphoblastoid cell line Ramos; test: Inhibition of cell proliferation (GI50) in Ramos cells; conditions: 48 h incubation
Method: as §4, §5, §6

[14] = system: human leukemia cell line K562; test: Inhibition of cell proliferation (GI50) in K562 cells; conditions: 48 h incubation
Method: as §4, §5, §6

[15] = system: human lymphoma cell line Raji; test: Inhibition of cell proliferation (GI50) in Raji cells; conditions: 48 h incubation
Method: as §4, §5, §6

## COc1ccc(-c2nn3c(-c4ccc(Cl)cc4)nnc3s2)cc1 [M, 3-(4-Chlorophenyl)-6-(4-methoxyphenyl)-[1,2,4]triazolo[3,4-b][1,3,4]thiadiazole]
[1]
  EC50: 5050 nM
[2]
  EC50: 4480 nM
[3]
  EC50: > 10000 nM
[4]
  EC50: > 10000 nM
[5]
  EC50: > 10000 nM
[6]
  EC50: > 10000 nM
[7]
  EC50: > 10000 nM

## CCc1cc(-c2nnc3sc(-c4ccc(C)cc4)nn23)n(C)n1 [A, 3-(3-Ethyl-1-methyl-1H-pyrazol-5-yl)-6-p-tolyl-[1,2,4]triazolo[3,4-b][1,3,4]thiadiazole]
[8]
  GI50: 253 nM
[1]
  EC50: 3160 nM
[2]
  EC50: 3680 nM
[3]
  EC50: > 10000 nM
[9]
  GI50: 2730 nM
[10]
  GI50: 4080 nM
[4]
  EC50: > 10000 nM
[5]
  EC50: > 10000 nM
[6]
  EC50: 1860 nM
[7]
  EC50: 5450 nM

## Clc1ccccc1-c1nnc2sc(-c3ccc4c(c3)OCO4)nn12 [L, 3-(2-Chlorophenyl)-6-(3,4-methylenedioxyphenyl)-[1,2,4]triazolo[3,4-b][1,3,4]thiadiazole]
[1]
  EC50: > 10000 nM
[2]
  EC50: 2620 nM
[3]
  EC50: > 10000 nM
[4]
  EC50: > 10000 nM
[5]
  EC50: > 10000 nM
[6]
  EC50: > 10000 nM
[7]
  EC50: > 10000 nM

## CCOc1ccc(-c2nn3c(-c4ccccc4Cl)nnc3s2)cc1 [O, 3-(2-Chlorophenyl)-6-(4-ethoxyphenyl)-[1,2,4]triazolo[3,4-b][1,3,4]thiadiazole]
[1]
  EC50: > 10000 nM
[2]
  EC50: 2430 nM
[3]
  EC50: > 10000 nM
[4]
  EC50: > 10000 nM
[5]
  EC50: > 10000 nM
[6]
  EC50: > 10000 nM
[7]
  EC50: > 10000 nM

## COc1ccccc1-c1nnc2sc(-c3ccc(C)c(N)c3)nn12 [Entry 5, 6-(3-Amino-4-methylphenyl)-3-(2-methoxyphenyl)-[1,2,4]triazolo[3,4-b][1,3,4]thiadiazole]
[11]
  GI50: 107 nM
[2]
  EC50: 121 nM
[12]
  GI50: 21 nM
[9]
  GI50: 22 nM
[4]
  EC50: 18 nM
[6]
  EC50: 33 nM
[7]
  EC50: 40 nM

## CCOc1ccc(-c2nn3c(-c4ccccc4C)nnc3s2)cc1 [P, 6-(4-Ethoxyphenyl)-3-o-tolyl-[1,2,4]triazolo[3,4-b][1,3,4]thiadiazole]
[1]
  EC50: 5140 nM
[11]
  GI50: > 10000 nM
[2]
  EC50: 2370 nM
[13]
  GI50: 6420 nM
[12]
  GI50: 7690 nM
[14]
  GI50: 3270 nM
[3]
  EC50: 5710 nM
[4]
  EC50: > 10000 nM
[5]
  EC50: > 10000 nM
[6]
  EC50: 5550 nM
[15]
  GI50: 9740 nM
[7]
  EC50: 5750 nM

## Cc1ccc(-c2nn3c(-c4n[nH]c5c4CCC5)nnc3s2)cc1 [Entry M1, 6-(4-Methylphenyl)-3-(1,4,5,6-tetrahydrocyclopenta[c]pyrazol-3-yl)-[1,2,4]triazolo[3,4-b][1,3,4]thiadiazole]
[11]
  GI50: 89 nM
[2]
  EC50: 395 nM
[12]
  GI50: 16 nM
[3]
  EC50: 40 nM
[9]
  GI50: 200 nM
[4]
  EC50: 39 nM
[5]
  EC50: 81 nM
[6]
  EC50: 34 nM
[7]
  EC50: 67 nM

## CCN(CC)c1ccc(-c2nn3c(-c4n[nH]c5c4CCC5)nnc3s2)cc1 [Entry K1, 6-(4-Diethylaminophenyl)-3-(1,4,5,6-tetrahydrocyclopenta[c]pyrazol-3-yl)-[1,2,4]triazolo[3,4-b][1,3,4]thiadiazole]
[11]
  GI50: 497 nM
[2]
  EC50: 636 nM
[12]
  GI50: 138 nM
[3]
  EC50: 585 nM
[9]
  GI50: 167 nM
[4]
  EC50: 580 nM
[5]
  EC50: 617 nM
[7]
  EC50: 1020 nM

## COc1ccc(-c2nn3c(-c4ccc(Cl)cc4Cl)nnc3s2)cc1OC [N, 3-(2,4-Dichlorophenyl)-6-(3,4-dimethoxyphenyl)-[1,2,4]triazolo[3,4-b][1,3,4]thiadiazole]
[1]
  EC50: > 10000 nM
[2]
  EC50: 5020 nM
[3]
  EC50: 5780 nM
[4]
  EC50: 5510 nM
[5]
  EC50: > 10000 nM
[6]
  EC50: > 10000 nM
[7]
  EC50: > 10000 nM

## CCc1cc(-c2nnc3sc(-c4ccc(OC)cc4)nn23)n(C)n1 [C, 3-(3-Ethyl-1-methyl-1H-pyrazol-5-yl)-6-(4-methoxyphenyl)-[1,2,4]triazolo[3,4-b][1,3,4]thiadiazole]
[2]
  EC50: 4030 nM
[3]
  EC50: 566 nM
[9]
  GI50: 900 nM
[10]
  GI50: 9000 nM
[4]
  EC50: 574 nM
[5]
  EC50: > 10000 nM
[6]
  EC50: 1720 nM
[7]
  EC50: 4570 nM

## COc1ccc(-c2nn3c(-c4ccccc4OC)nnc3s2)cc1N [Entry 7, 6-(3-Amino-4-methoxyphenyl)-3-(2-methoxyphenyl)-[1,2,4]triazolo[3,4-b][1,3,4]thiadiazole]
[11]
  GI50: 83 nM
[2]
  EC50: 284 nM
[12]
  GI50: 14 nM
[9]
  GI50: 100 nM
[4]
  EC50: 18 nM
[6]
  EC50: 19 nM
[7]
  EC50: 21 nM

## COc1ccccc1-c1nnc2sc(-c3cc4ccccc4o3)nn12 [Entry A1, 6-(Benzofuran-2-yl)-3-(2-methoxyphenyl)-[1,2,4]triazolo[3,4-b][1,3,4]thiadiazole]
[11]
  GI50: 2500 nM
[2]
  EC50: 662 nM
[13]
  GI50: 58 nM
[12]
  GI50: 126 nM
[14]
  GI50: 124 nM
[3]
  EC50: 115 nM
[4]
  EC50: 92 nM
[5]
  EC50: 198 nM
[6]
  EC50: 160 nM
[15]
  GI50: 966 nM
[7]
  EC50: 321 nM

## CCN(CC)c1ccc(-c2nn3c(-c4ccccc4C)nnc3s2)cc1 [Entry F1, 6-(4-Diethylaminophenyl)-3-o-tolyl-[1,2,4]triazolo[3,4-b][1,3,4]thiadiazole]
[11]
  GI50: 694 nM
[2]
  EC50: 666 nM
[13]
  GI50: 113 nM
[12]
  GI50: 372 nM
[14]
  GI50: 303 nM
[3]
  EC50: 712 nM
[4]
  EC50: 734 nM
[5]
  EC50: 1020 nM
[6]
  EC50: 751 nM
[15]
  GI50: 801 nM
[7]
  EC50: 1720 nM
